Test results: patent US20090181910A1, “METHOD OF PREVENTION AND ALLEVIATION OF TOXICITY BY MODULATION OF IRF3” (priority 2006, published 2009)
Entries after “also recorded” stand apart in the source; their conditions may differ. Where a SMILES comes first, the peptide text is derived from it. The star is where a group is joined. Cbz = O=C(OCc1ccccc1)*

How the values were obtained:
CRBPII = experiment: RAW 264.7 Q-PCR: CRBPII; format: cell-based, murine; details: overexpression of Hes1 in RAW 264.7 cells; FIG. 10b
ABCA1 = experiment: RAW 264.7 Q-PCR: ABCA1; format: cell-based, murine; details: overexpression of Hes1 in RAW 264.7 cells; FIG. 10b
[1] = in adults; cited from earlier work
Cyp1A2 = experiment: Liver RNA Q-PCR, polyI:C/APAP-treated mice: Cyp1A2; details: APAP 350 mg/kg i.p., 6 h
Cyp3A11 [2] = experiment: Liver RNA Q-PCR, polyI:C/APAP-treated mice: Cyp3A11; details: APAP 350 mg/kg i.p., 6 h
RXRα [3] = test system: RXRα; parameters: species or system mice; details: mouse, in vivo
UGT1A6 [4] = format: cell-based, human; details: Huh7 cells with RXRα silenced by siRNA; ASA 20 μg/ml 24 hours
UGT1A6 [5] = test system: UGT1A6; parameters: species or system mice; details: mouse
Oatp2 = test system: Oatp2; parameters: species or system mice; details: mouse
Cyp3A11 [6] = details: mouse
[7] = mouse, in vivo
[8] = mouse, in vivo; remark: listed apart in the source
RXRα [9] = experiment: BMM anti-RXRα Western blot; format: cell-based, Murine; details: for RXRα protein loss following polyI:C treatment: LG268 10 nM or GW3965 1 μM added to polyI:C 1 μg/ml, 24 hrs, FIG. 8d
[10] = mouse, in vivo; remark: listed apart in the source
[11] = Survival following APAP treatment; format: in vivo, mice; details: PCN 75 mg/kg i.p. 24 h before APAP 175 mg/kg; FIG. 4C
Experimental: FIG. 4: Percentage survival following APAP treatment with or without polyI:C. (A) Wildtype (n=8) fasted and were treated with 0.1% NaCl or polyI:C (100 μg) intravenous (i.v.) 24 hours prior to treatment with APAP (600 mg/kg) by intraperitoneal (i.p.) injection. (B) Wildtype and IRF3−/− (n=6-8) fasted and were treated with 0.1% NaCl or polyI:C (100 μg) intravenous (i.v.) 24 hours prior to treatment with APAP (600 mg/kg) by intraperitoneal (i.p.) injection. (C) Wildtype mice (n=6-8) fasted and were treated with 0.1% NaCl or polyI:C (100 μg) intravenous (i.v.) and PCN (75 mg/kg) intraperitoneal (i.p.) 24 hours prior to treatment with APAP (175 mg/kg) by intraperitoneal (i.p.) injection.
Age and sex matched 6-9 week old mice were used for all experiments. C57/B16 mice were obtained from Jackson Laboratory. IRF3^−/− mice were obtained from Dr. T. Taniguchi. For APAP hepatotoxicity analysis, mice fasted for […] and then administered Vehicle (0.1% NaCl) or APAP (175-600 mg/kg) by intraperitoneal injection (i.p.). For serum and histological studies, mice were sacrificed at 6-7 hours post injection and serum and liver samples were retrieved. For survival studies, mice were studied for up to 5 days. For polyI:C studies, mice were also treated with 0.1% NaCl or polyI:C (100 μg) intravenous (i.v.) 12-24 hours prior to APAP treatment. To study the effects of PCN on APAP treatment, mice were treated with PCN (75 mg/kg) or control (1% DMSO, corn oil) by intraperitoneal (i.p.) 12-24 hours prior to APAP treatment. To study the effects of ethanol (EtOH) on APAP treatment, mice were given 20% EtOH in water ad libidum for 5 days prior to APAP therapy. PolyI:C treatment for these experiments occurred at Day 3 and Day 5. Serum alanine aminotransferase (ALT) levels were determined using manufacturer's protocol (TECO Diagnostics). For H&E staining, liver samples were fixed in formalin for 48 hours. H&E stainings were done by UCLA Tissue Procurement Core Laboratory (TPCL).

[12] = addition of PCN
[13] = Serum ALT in APAP hepatotoxicity
[14] = H&E liver histology in APAP hepatotoxicity; details: pretreatment with PCN or ethanol, lower levels of APAP (175 mg/kg); FIG. 3B
RXRα [15] = format: cell-based, Murine

CC1=C(/C=C/C(C)=C\C=C\C(C)=C\C(=O)O)C(C)(C)CCC1 [9cRA, 9-cis retinoic acid]
induction of CRBPII by 9cRA (CRBPII): prevents
induction of ABCA1 by 9cRA (ABCA1): prevents

CC(=O)Nc1ccc(O)cc1 [APAP, Acetaminophen]
single acute toxic ingestion [1]: approximately 7 g
induction of Cyp1A2 by APAP (Cyp1A2): does not
induction of Cyp3A11 by APAP (Cyp3A11 [2]): does not

CC(=O)Oc1ccccc1C(=O)O [ASA, acetylsalicylic acid]
RXRα protein in liver (RXRα [3]): significant loss of RXRα protein
UGT1A6 induction by ASA (UGT1A6 [4]): impaired
UGT1A6 mRNA in vivo (UGT1A6 [5]): potently increased
Oatp2 mRNA in vivo (Oatp2): not other PXR/RXR genes such as Oatp2
CYP3A11 mRNA in vivo (Cyp3A11 [6]): potently increased
hepatotoxicity (liver necrosis or fatty degeneration) [7]: caused severe hepatotoxicity as evidenced by liver necrosis or fatty degeneration
hepatotoxicity from polyI:C plus ASA in knockout mice [7]: did not occur in IRF3^−/− mice, but did occur in IFNAR^−/− mice
hepatotoxicity, agent alone [7]: did not cause significant hepatotoxicity
blood glucose levels [8]: significantly decreased
serum ALT [8]: increased
serum ammonia [8]: increased
total bilirubin levels [8]: increased

O=C(O)Cc1cccc(OCCCN(Cc2cccc(C(F)(F)F)c2Cl)CC(c2ccccc2)c2ccccc2)c1 [GW3965]
RXRα protein loss following polyI:C treatment (RXRα [9]): more obvious

C[C@H](CCC(=O)O)[C@H]1CC[C@H]2[C@@H]3CC[C@@H]4C[C@H](O)CC[C@]4(C)[C@H]3CC[C@]12C [LCA, Lithocholic acid]
serum alanine aminotransferase (ALT) levels [10]: significant elevation of serum alanine aminotransferase (ALT) levels

Cc1cc2c(cc1C1(c3ccc(C(=O)O)cn3)CC1)C(C)(C)CCC2(C)C [LG268]
RXRα protein loss following polyI:C treatment (RXRα [9]): more obvious

CC(C)C[C@@H](C=O)NC(=O)[C@H](CC(C)C)NC(=O)[C@H](CC(C)C)NC(=O)OCc1ccccc1 [MG132] (Cbz-Leu-Leu-Leu-aldehyde)
RXRα protein loss after 9cRA and polyI:C co-stimulation (RXRα [9]; MG132 10 μM, BMMs, FIG. 8f): prevented loss of RXRα protein

CC(=O)[C@H]1[C@H](C#N)C[C@H]2[C@@H]3CC=C4C[C@@H](O)CC[C@]4(C)[C@H]3CC[C@@]21C [PCN, Pregnenolone 16alpha-carbonitrile]
sensitivity to APAP (survival) [11]: increases sensitivity to lower levels of APAP
RXRα protein expression in liver (RXRα [3]): further loss of RXRα protein expression; also recorded: potent loss of RXRα protein
UGT1A6 mRNA in vivo (UGT1A6 [5]): potently increased
Oatp2 mRNA in vivo (Oatp2): not other PXR/RXR genes such as Oatp2
CYP3A11 mRNA in vivo (Cyp3A11 [6]): potently increased
LCA-induced serum ALT with PCN co-treatment [10]: reduced
protection from VSV plus LCA-induced hepatotoxicity [12]: could not be blocked
hepatotoxicity as measured by serum ALT ([13]; PCN 75 mg/kg i.p. 24 h before APAP 175 mg/kg, FIG. 2B): caused less toxic levels of APAP to result in severe hepatotoxicity
cell necrosis (H&E) [14]: results in severe necrosis similar to higher doses of APAP

CC(/C=C/C(=O)NO)=C\[C@@H](C)C(=O)c1ccc(N(C)C)cc1 [TSA, trichostatin A]
effect on polyI:C repression of RXRα mRNA (RXRα [15]): prevented polyI:C repression of RXRα, and allowed polyI:C to induce RXRα

CCO [ethanol, Ethanol]
sensitivity to APAP (serum ALT) ([13]; 20% EtOH ad libidum 5 days, APAP 175 mg/kg, FIG. 2C): results in similar sensitivity to APAP as PCN treatment
cell necrosis (H&E) [14]: results in severe necrosis similar to higher doses of APAP
